# Measurements taken from patent publication US20120004244A1, “Bis Aromatic Compounds for Use as LTC4 Synthase Inhibitors” (BIOLIPOX AB, priority 2009, published 2012).
# Biological target: T1, Recombinant human LTC4 synthase (Homo sapiens, UniProt Q16873)
# T1 construct: made in house; host or cells: Pichia pastoris ('Piccia pastoralis' [sic])
# T1 sequence (Q16873 1-150): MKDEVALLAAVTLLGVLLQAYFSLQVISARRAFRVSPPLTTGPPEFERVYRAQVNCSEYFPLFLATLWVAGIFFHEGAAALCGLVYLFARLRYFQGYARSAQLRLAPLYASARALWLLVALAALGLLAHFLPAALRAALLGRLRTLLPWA
# Assay: LTC4 synthase in vitro assay (LTA4 to LTC4, HTRF detection)
# Format: biochemical
# Conditions: for inhibition at 10 µM: 5 min, total concentration of title compound in the assay 10 μM
# Method in brief: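 Purified recombinant human LTC4 synthase expressed in Pichia (0.5 μg/mL total protein) was preincubated with inhibitor at 10 μM final for 10 min at room temperature in PBS pH 7.4 with 5 mM GSH. LTA4 was then added at 2.5 μM final, and after 5 min at room temperature LTC4 was detected by HTRF.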
Compound,IC50 [µM],inhibition at 10 µM [%]
"CN(c1ccc(Cl)cc1)c1ccc(C(=O)c2ccc(N3CCC(C(C)(C)C)CC3)c(C(=O)O)c2)nc1 [2:5, 2-(4-tert-Butylpiperidin-1-yl)-5-{5-[(4-chlorophenyl)(methyl)amino]picolinoyl}benzoic acid]",3,–
"N#CCCCN(c1ccc(Cl)cc1)c1ccc(C(=O)c2ccc(Oc3ccccc3)c(C(=O)O)c2)nc1 [1:10, 5-{5-[(4-Chlorophenyl)(3-cyanopropyl)amino]picolinoyl}-2-phenoxybenzoic acid]",0.433,98
"O=C(c1ccc(Oc2ccccc2Oc2ccccc2)c(C(=O)O)c1)c1ccc(N(CC2CC2)c2ccc(Cl)cc2)cn1 [1:40, 5-{5-[(4-Chlorophenyl)(cyclopropylmethyl)amino]picolinoyl}-2-(2-phenoxyphenoxy)benzoic acid]",0.066,–
"C=CCN(c1ccc(Cl)cc1)c1ccc(C(=O)c2ccc(Oc3ccccc3)c(C(=O)O)c2)nc1 [1:8, 5-{5-[(Allyl)(4-chlorophenyl)amino]picolinoyl}-2-phenoxybenzoic acid]",0.088,100
"CN(c1ccc(Cl)cc1)c1ccc(C(=O)c2ccc(C(=O)c3ccccc3)c(C(=O)O)c2)nc1 [5:1, 2-Benzoyl-5-{5-[(4-chlorophenyl)(methyl)amino]picolinoyl}benzoic acid]",0.072,–
CN(c1ccc(Cl)cc1)c1ccc(C(=O)c2ccc(C(=O)c3ccc([N+](=O)[O-])cc3)c(C(=O)O)c2)nc1 [5:12],0.202,–
"C=CCN(c1ccc(C(F)(F)F)cc1)c1ccc(C(=O)c2ccc(Oc3ccccc3)c(C(=O)O)c2)nc1 [1:13, 5-{5-[(Allyl)(4-trifluoromethylphenyl)amino]picolinoyl}-2-phenoxybenzoic acid]",0.29,99
CN(c1ccc(Cl)cc1)c1ccc(C(=O)c2ccc(Oc3ccc(F)c(F)c3)c(C(=O)O)n2)cc1 [9:2],0.834,94
"COc1ccc(Oc2ccc(C(=O)c3ccc(OCc4cccc(Cl)c4)cn3)cc2C(=O)O)cc1 [11:2, 5-[5-(3-Chlorobenzyloxy)picolinoyl]-2-(4-methoxyphenoxy)benzoic acid]",0.345,–
"CN(c1ccc(Cl)cc1)c1ccc(C(=O)c2ccc(-c3ccc(Cl)cc3Cl)c(C(=O)O)c2)nc1 [21:2, 2′,4′-Dichloro-4-{5-[(4-chlorophenyl)(methyl)amino]picolinoyl}biphenyl-2-carboxylic acid]",0.261,–

# Molecules with a lower IC50, results first:
IC50 [µM],inhibition at 10 µM [%],Compound
0.056,–,"O=C(c1ccc(-n2nncc2-c2ccc(F)cc2)c(C(=O)O)c1)c1ccc(N(CC2CC2)c2ccc(Cl)cc2)cn1 [17:5, 5-{5-[(4-Chlorophenyl)(cyclopropylmethyl)amino]picolinoyl}-2-(5-(4-fluorophenyl)-1,2,3-triazol-1-yl)benzoic acid]"
0.053,99,"CN(c1ccc(Cl)cc1)c1ccc(C(=O)c2ccc(Nc3ccc(C(F)(F)F)cc3)c(C(=O)O)c2)nc1 [2:1, 5-{5-[(4-Chlorophenyl)(methyl)amino]picolinoyl}-2-(4-trifluoromethylphenyl-amino)benzoic acid]"
0.012,–,"COc1cc(OC)cc(C(=O)Nc2ccc(C(=O)c3ccc(N(C)c4ccc(Cl)cc4)cn3)cc2C(=O)O)c1 [3:29, 5-{5-[(4-Chlorophenyl)(methyl)amino]picolinoyl}-2-(3,5-dimethoxybenzamido)-benzoic acid]"
0.044,–,"CN(c1ccc(Cl)cc1)c1ccc(C(=O)c2ccc(NC(=O)c3ccc(OC(F)(F)F)cc3)c(C(=O)O)c2)nc1 [3:11, 5-{5-[(4-Chlorophenyl)(methyl)amino]picolinoyl}-2-(4-trifluoromethoxy-benzamido)benzoic acid]"
0.017,–,"O=C(c1ccc(NS(=O)(=O)c2ccc(Cl)cc2)c(C(=O)O)c1)c1ccc(N(CC2CC2)c2ccc(Cl)cc2)cn1 [4:6, 2-(4-Chlorophenylsulfonamido)-5-{5-[(4-chlorophenyl)(cyclopropylmethyl)-amino]picolinoyl}benzoic acid]"
